The values that follow come from patent publication US20100145901A1, “MATRIX MARKER MODEL AND METHODS FOR ASSESSING AND TREATING ARTHRITIS AND RELATED DISORDERS” (priority 2007, published 2010).

Assay [1] relates to RA patients. The note with it: 25 studies, 3907 RA patients; cited from earlier work.
For assay [2], the system named is patients with active RA. Description: ASPIRE trial: joint damage progression (modified Sharp/van der Heijde score) baseline to week 54. The class given is in vivo, human. On the procedure: Details on the patient population and study protocol on which we have tested our model have been presented previously (StClair et al. Arthritis Rheum 2004; 50:3432-3443). […] In addition, patients had >=10 swollen joints (66 joint count), >=12 tender joints (68 joint count), and >=1 of the following: rheumatoid factor (RF) positivity, radiographic erosions of the hands or feet, or serum C-reactive protein (CRP) level >=2.0 mg/dl.
The institutional review boards at participating sites approved the study protocol. All patients provided written informed consent. Patients were randomized in a 4:5:5 ratio to receive placebo, infliximab 3 mg/kg, or infliximab 6 mg/kg at weeks 0, 2, and 6, and then every 8 weeks through week 46. All patients were treated with oral MTX starting at 7.5 mg/week at week 0; MTX doses were increased by 2.5 mg every 1-2 weeks to reach 15 mg/week by week 4 and 20 mg/week by week 8. MTX was administered to all patients through week 54. Patients also received folic acid >=5 mg/week.
The American College of Rheumatology core set variables (Felson A&R 1993), including numbers of tender and swollen joints, were documented at each visit. The 28 joint count (Prevoo A&R 1995) was used in the creation of our model as it is more appropriate and more frequently used in daily clinical practice as compared to the 66/68 count. The Westergren method (Koepke 1988) was used to determine erythrocyte sedimentation rate (ESR) at weeks 0, 6, 30, and 54; normal ESR levels were <=20 mm/hour for women and <=15 mm/hour for men. CRP levels (normal <0.8 mg/dl) were measured by nephelometry (Stites 1997) at screening and each visit thereafter. (If possible RF testing should be specified as different IG's tested for have different correlation with radiological progression. Radiographs of the hands and feet were obtained within 4 weeks of receiving the first dose of the study drug, at weeks 30 and 54, and upon use of a protocol-prohibited medication or study termination, as applicable. Joint damage was assessed by change in the modified Sharp/van der Heijde score (SHS) (vander Heijde Lancet 1989) from baseline to week 54.
Of the 1,049 patients enrolled in the ASPIRE trial, 1,004 were prospectively identified as eligible for inclusion in the efficacy analyses prior to unblinding (StClair A&R 2004). […] Summary statistics of median, mean, and interquartile ranges are presented for continuous variables. Spearman correlation analyses were performed to evaluate the association between baseline covariates and changes in radiographic scores. Tests for statistical significance were performed using analysis of variance on van der Waerden normal scores. For categorical response parameters, treatment group comparisons were made using the chi-square test. […]

For `CN(Cc1cnc2nc(N)nc(N)c2n1)c1ccc(C(=O)N[C@@H](CCC(=O)O)C(=O)O)cc1` [MTX, methotrexate], the “change in erosion scores versus placebo” value in assay [1] is “statistically better than placebo”. Also, the “change in the SHS from baseline to week 54 (mean+/−SD)” value in assay [2] (MTX alone) is reported as 3.7+/−9.6. Besides, in assay [2] (baseline to week 54), the “patients showing an increase in radiographic score” value was found to be 61%, the “patients showing an increase of radiographic score of at least 5 SHS units” value was determined as 23% and the “patients with SHS of 0 at baseline who did not progress” value is listed as 63%.
In the case of `O=C(O)c1cc(/N=N/c2ccc(S(=O)(=O)Nc3ccccn3)cc2)ccc1O` [SSZ, sulphasalazine], the “change in erosion scores versus placebo” value in assay [1] was “statistically better than placebo”.
`CC(=O)OC[C@H]1O[C@@H]([S-])[C@H](OC(C)=O)[C@@H](OC(C)=O)[C@@H]1OC(C)=O.CCP(CC)CC.[Au+]` [auranofin]: the “change in erosion scores versus placebo” value in assay [1] was “statistically better than placebo”.
As for `Cc1oncc1C(=O)Nc1ccc(C(F)(F)F)cc1` [leflunomide], the “change in erosion scores versus placebo” value in assay [1] is given as “statistically better than placebo”.
In the case of infliximab, in assay [1], the “change in erosion scores versus placebo” value is reported as “statistically better than placebo” and the “rank versus other agents in preventing radiological progression” value is on record as “superior to the last five agents”.
Regarding “interleukin 1 receptor antagonist: interleukin 1 receptor antagonist”, the “change in erosion scores versus placebo” value in assay [1] is reported as “statistically better than placebo”.
